Experimental data taken from US20240279176A1, “SUBSTITUTED TRICYCLIC HETEROCYCLIC COMPOUNDS AS METALLO-BETA-LACTAMASE INHIBITORS” (priority 2021, published 2024).
Like-named read-outs stand apart in the source and are kept apart here.

Experiments:
IMP-1 = IMP-1 (Serratia marcescens, UniProt P52699); assay: Enzyme activity: IC50 in fluorescence assay with cephalosporin substrate FC5; assay type: biochemical; conditions: 100 pM IMP-1, 10 μM FC5, 10 min pre-incubation
Experimental: (§1) The Class B beta-lactamases activities were measured in the presence of the test inhibitors in a fluorescence assay against an in-house synthesized fluorescent cephalosporin substrate FC5 (Berkel, et. al. J. Med. Chem. 2013, 56(17), 6945). The enzymes (NDM-1, IMP-1) and the substrate were diluted in 20 mM HEPES, pH 7.4, supplemented with 300 mM NaCl and 10 μM ZnSO4. In the assay, the final concentration of enzyme was 50 pM, and 100 pM for NDM-1, and IMP-1 respectively, and the final concentration of FC5 was 1.5 μM for NDM-1 and 10 μM for IMP-1. The test inhibitors/compounds were dissolved in dimethylsulfoxide (DMSO) and diluted in the assay with assay buffer (20 mM HEPES, pH 7.4, supplemented with 5% DMSO, 300 mM NaCl and 10 μM ZnSO4), resulting in a final concentration range of 0.008 μM to 25 μM. The assays were performed in 96-well microplate (flat bottom, black). The test inhibitors were incubated with the MBL enzyme for 10 min at room temperature, followed by addition the substrate and the fluorescence was recorded immediately (λex 380 nm, λem 460 nm) on a microplate reader. Using the initial velocity data plotted against the inhibitor concentration, the half-maximal inhibitory concentrations were calculated by an IC50 curve-fitting model in GraphPad Prism 9 software.

NDM-1 = NDM-1 (Klebsiella pneumoniae, UniProt C7C422); assay: as above; assay type: biochemical; conditions: 50 pM NDM-1, 1.5 μM FC5, 10 min pre-incubation
NDM-1, sequence (C7C422 29-270, looked up): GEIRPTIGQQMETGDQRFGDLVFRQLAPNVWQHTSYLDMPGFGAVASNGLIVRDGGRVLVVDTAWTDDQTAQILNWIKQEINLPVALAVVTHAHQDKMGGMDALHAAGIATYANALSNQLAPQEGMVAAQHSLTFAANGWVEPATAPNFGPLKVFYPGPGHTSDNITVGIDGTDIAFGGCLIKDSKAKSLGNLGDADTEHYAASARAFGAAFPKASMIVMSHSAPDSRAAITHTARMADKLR
Experimental: as §1

[1] = test system: Klebsiella pneumoniae ATCC BAA-2146; assay: Minimum inhibitory concentration (MIC), broth-microdilution (CLSI); assay type: cell-based; conditions: ATCCBAA2146, compound alone, K. pneumoniae ATCC BAA-2146, read-out: Intrinsic MIC
Source text: (§2) The strain included in the study was Klebsiella pneumoniae ATCC BAA-2146 (Himedia®, India) with presence of New Delhi metallo-β-lactamase (NDM-1) gene. The quality control reference strains Escherichia coli ATCC 25922 and Pseudomonas aeruginosa ATCC 27853 were procured from Himedia®, India.
MIC values were identified through broth-microdilution in sterilized 96-well polystyrene flat-bottom microtitre plates (Cole-Parmer®) according to the guideline of the Clinical and Laboratory Standards Institute (CLSI) (CLSI; Methods for dilution antimicrobial susceptibility tests for bacteria that grow aerobically; Clinical Laboratory Standards Institute, M07-A09, 2012). This method involves the use of BBL™ Cation-adjusted Mueller-Hinton II Broth (CA-MHB; BD) and the strain (Klebsiella pneumoniae ATCC BAA-2146) concentration was adjusted to 5×10^5 CFU/mL. After 16-18 h of incubation at various concentrations of Imipenem, Meropenem (Alfa Aesar), or test compounds at 37° C., MIC was defined as the lowest concentration of antibiotic or test compound with no visible growth.

[2] = test system: Klebsiella pneumoniae ATCC BAA-2146; assay: Checkerboard synergy assay in combination with Imipenem; assay type: cell-based; conditions: K. pneumoniae ATCC BAA-2146; for Fold reduction in Imipenem MIC in the presence of compounds (μg/mL) 4: compound at 4 μg/mL; for Fold reduction in Imipenem MIC in the presence of compounds (μg/mL) 8: compound at 8 μg/mL; for Fold reduction in Imipenem MIC in the presence of compounds (μg/mL) 16: compound at 16 μg/mL; for Fold reduction in Imipenem MIC in the presence of compounds (μg/mL) 32: compound at 32 μg/mL
Source text: as §2
(§3) The fold modulation activity of test compounds, in combination with Imipenem or Meropenem, was checked against Klebsiella pneumoniae ATCC BAA-2146 strain by the broth-microdilution checkerboard synergy assay. The plates contained 5×10^5 CFU/mL bacterial inocula and 2-fold serial dilutions of the antibiotics (128-2 μg/mL) as well as test compounds (32-4 μg/mL) in a total volume of 200 μL of CA-MHB. Dimethyl sulfoxide (DMSO, ≤2.5%) was included as vehicle control. Following 16-18 h of incubation at 37° C., the MICs of antibiotics as well as drug combinations were visually inspected.

[3] = test system: Klebsiella pneumoniae ATCC BAA-2146; assay: Checkerboard synergy assay in combination with Meropenem; assay type: cell-based; conditions: K. pneumoniae ATCC BAA-2146; for Fold reduction in meropenem MIC in the presence of compounds (μg/mL) 4: compound at 4 μg/mL; for Fold reduction in meropenem MIC in the presence of compounds (μg/mL) 8: compound at 8 μg/mL; for Fold reduction in meropenem MIC in the presence of compounds (μg/mL) 16: compound at 16 μg/mL; for Fold reduction in meropenem MIC in the presence of compounds (μg/mL) 32: compound at 32 μg/mL
Source text: as §2, §3

IMP-1, sequence (P52699 19-246, looked up, species assumed): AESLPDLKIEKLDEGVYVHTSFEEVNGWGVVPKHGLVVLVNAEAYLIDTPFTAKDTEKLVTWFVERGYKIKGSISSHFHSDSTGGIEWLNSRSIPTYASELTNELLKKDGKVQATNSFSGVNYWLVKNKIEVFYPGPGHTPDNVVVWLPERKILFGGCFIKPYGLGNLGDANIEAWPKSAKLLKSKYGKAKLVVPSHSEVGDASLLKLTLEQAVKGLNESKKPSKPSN

IC50 (IMP-1) | IC50 (NDM-1) | MIC ([1]; Imipenem series) | MIC ([1]; meropenem series) | Fold reduction in Imipenem MIC in the presence of compounds (μg/mL) 4 [2] | Fold reduction in Imipenem MIC in the presence of compounds (μg/mL) 8 [2] | Fold reduction in Imipenem MIC in the presence of compounds (μg/mL) 16 [2] | Fold reduction in Imipenem MIC in the presence of compounds (μg/mL) 32 [2] | Fold reduction in meropenem MIC in the presence of compounds (μg/mL) 4 [3] | Fold reduction in meropenem MIC in the presence of compounds (μg/mL) 8 [3] | Fold reduction in meropenem MIC in the presence of compounds (μg/mL) 16 [3] | Fold reduction in meropenem MIC in the presence of compounds (μg/mL) 32 [3] | Structure (SMILES)
1.36 µM | 0.075 µM | > 128 mg/L | > 128 mg/L | 4 fold | 4 fold | 8 fold | 8 fold | 4 fold | 4 fold | 8 fold | 8 fold | O=C(O)c1[nH]c2c(c1-c1cncc(Cl)c1)CCc1ccccc1-2 [Example 54, 3-(5-chloropyridin-3-yl)-4,5-dihydro-1H-benzo[g]indole-2-carboxylic Acid]
1.48 µM | 0.007 µM | > 128 mg/L | > 128 mg/L | 4 fold | 4 fold | 4 fold | 8 fold | 4 fold | 4 fold | 4 fold | 4 fold | O=C(O)c1[nH]c2c(c1-c1ccc(Cl)cc1)CCc1ccccc1-2 [Example 43, 3-(4-chlorophenyl)-4,5-dihydro-1H-benzo[g]indole-2-carboxylic Acid]
0.495 µM | 0.049 µM | > 128 mg/L | > 128 mg/L | 4 fold | 8 fold | 8 fold | 8 fold | 4 fold | 4 fold | 8 fold | 8 fold | COc1cc(OC)cc(-c2c(C(=O)O)[nH]c3c2CCc2ccccc2-3)c1 [Example 61, 3-(3,5-dimethoxyphenyl)-4,5-dihydro-1H-benzo[g]indole-2-carboxylic Acid]
0.695 µM | 0.252 µM | > 128 mg/L | > 128 mg/L | 4 fold | 4 fold | 8 fold | 8 fold | 4 fold | 4 fold | 4 fold | 8 fold | Cc1cc(C)cc(-c2c(C(=O)O)[nH]c3c2CCc2ccccc2-3)c1 [Example 48, 3-(3,5-dimethylphenyl)-4,5-dihydro-1H-benzo[g]indole-2-carboxylic Acid]
1.34 µM | 0.256 µM | > 128 mg/L | > 128 mg/L | 4 fold | 4 fold | 8 fold | 8 fold | 4 fold | 4 fold | 4 fold | 8 fold | O=C(O)c1[nH]c2c(c1-c1ccccc1F)CCc1ccccc1-2 [Example 41, 3-(2-Fluorophenyl)-4,5-dihydro-1H-benzo[g]indole-2-carboxylic Acid]
10.4 µM | 0.306 µM | > 128 mg/L | > 128 mg/L | 4 fold | 4 fold | 8 fold | 16 fold | 4 fold | 4 fold | 8 fold | 16 fold | O=C(O)c1[nH]c2c(c1-c1ccc(Cl)cc1Cl)CCc1ccccc1-2 [Example 46, 3-(2,4-dichlorophenyl)-4,5-dihydro-1H-benzo[g]indole-2-carboxylic acid]
0.026 µM | 0.026 µM | > 128 mg/L | > 128 mg/L | 4 fold | 4 fold | 8 fold | 8 fold | 4 fold | 4 fold | 4 fold | 8 fold | COc1ccc(Cl)cc1-c1c(C(=O)O)[nH]c2c1CCc1ccccc1-2 [Example 38, 3-(5-Chloro-2-methoxyphenyl)-4,5-dihydro-1H-benzo[g]indole-2-carboxylic Acid]
18.3 µM | 2.65 µM | > 64 mg/L | > 64 mg/L | 2 fold | 2 fold | 2 fold | 4 fold | 2 fold | 2 fold | 4 fold | 4 fold | COc1ccc(-c2c(C(=O)O)[nH]c3c2CCc2ccccc2-3)cc1 [Example 36, 3-(4-Methoxyphenyl)-4,5-dihydro-1H-benzo[g]indole-2-carboxylic Acid]
72.1 µM | 0.591 µM | > 64 mg/L | > 64 mg/L | 2 fold | 4 fold | 4 fold | 4 fold | 4 fold | 4 fold | 4 fold | 4 fold | CC(C)(C)c1ccc(-c2c(C(=O)O)[nH]c3c2CCc2ccccc2-3)cc1 [Example 39, 3-(4-(tert-Butyl)phenyl)-4,5-dihydro-1H-benzo[g]indole-2-carboxylic Acid]
